From the NIST ThermoML archive (doi:10.1021/je020185k)

Columns and labels:
[1] = Liquid; for mass density: 298.15 K, 101.33 kPa
[2] = xn = mol fraction of the nth substance listed; settings: 298.15 K, 101.3 kPa, Liquid

C1COCCO1 [1,4-dioxane]
[1]
Settings | Normal boiling temperature [°C] | mass density [kg/m3]
– | 101.37 | 1027.88

CC(C)CCl [1-chloro-2-methylpropane]
Settings | mass density [kg/m3]
[1] | 871.13

Settings | Normal boiling temperature [°C]
[1], Ebulliometric method (Recirculating still) | 68.90

CC(C)CCl [1-chloro-2-methylpropane] + C1COCCO1
[2]
Settings | mass density [kg/m3]
x2 = 0.0529 | 877.81
x2 = 0.1009 | 883.95
x2 = 0.2001 | 896.98
x2 = 0.3003 | 910.79
x2 = 0.3957 | 924.5
x2 = 0.5022 | 940.58
x2 = 0.5945 | 955.19
x2 = 0.7005 | 972.78
x2 = 0.7926 | 988.8
x2 = 0.8978 | 1008.04
x2 = 0.9371 | 1015.61

CCCCCl [1-chlorobutane]
Settings | mass density [kg/m3]
[1] | 880.69

Settings | Normal boiling temperature [°C]
[1], Ebulliometric method (Recirculating still) | 78.37

CCCCCl [1-chlorobutane] + C1COCCO1
[2]
Settings | mass density [kg/m3]
x2 = 0.0422 | 885.61
x2 = 0.0947 | 891.8
x2 = 0.2055 | 905.35
x2 = 0.2766 | 914.45
x2 = 0.4083 | 932.02
x2 = 0.4852 | 942.87
x2 = 0.6082 | 961.08
x2 = 0.6587 | 968.92
x2 = 0.7939 | 990.92
x2 = 0.894 | 1008.37
x2 = 0.9509 | 1018.71

CC(C)(C)Cl [2-chloro-2-methylpropane]
Settings | mass density [kg/m3]
[1] | 836.45

Settings | Normal boiling temperature [°C]
[1], Ebulliometric method (Recirculating still) | 50.73

CC(C)(C)Cl [2-chloro-2-methylpropane] + C1COCCO1
[2]
Settings | mass density [kg/m3]
x2 = 0.0563 | 845.77
x2 = 0.1059 | 853.89
x2 = 0.2019 | 870.2
x2 = 0.3134 | 889.71
x2 = 0.4148 | 908.22
x2 = 0.5097 | 926.46
x2 = 0.6071 | 945.55
x2 = 0.7113 | 966.4
x2 = 0.8 | 984.5
x2 = 0.9062 | 1006.81
x2 = 0.9554 | 1017.73

CCC(C)Cl (centres undefined) [2-chlorobutane]
Settings | mass density [kg/m3]
[1] | 867.4

Settings | Normal boiling temperature [°C]
[1], Ebulliometric method (Recirculating still) | 68.11

CCC(C)Cl (centres undefined) [2-chlorobutane] + C1COCCO1
[2]
Settings | mass density [kg/m3]
x2 = 0.0522 | 874.11
x2 = 0.0886 | 878.88
x2 = 0.1892 | 892.48
x2 = 0.2923 | 907.06
x2 = 0.3647 | 917.71
x2 = 0.4928 | 937.42
x2 = 0.6155 | 957.41
x2 = 0.7149 | 974.47
x2 = 0.8019 | 990.07
x2 = 0.9068 | 1009.72
x2 = 0.941 | 1016.33
